Source: patent publication US11407756B2, “Heterocyclic compounds and noxious arthropod control agent containing same” (SUMITOMO CHEMICAL COMPANY, LIMITED, priority 2017, dated 2022)

Test system: German cockroaches (Blattella germanica)
Test: Test method 8: treated filter paper with sucrose, male adult German cockroaches
Format: in vivo
Settings: 500 ppm, 0.7 mL on filter paper, after 6 days, 25° C.
Experimental: Next, Test Examples are used to show effects of the Present compounds X on harmful arthropods. In the following Test Examples, the tests were carried out at 25° C.
Each test compound is formulated according to the process described in the Formulation Example 5 to obtain each formulation, and water is added thereto to prepare a diluted solution containing a prescribed concentration of each test compound.
A filter paper having a diameter of 5.5 cm is lined with the inside bottom of a cup having a diameter of 5.5 cm, each of said diluted solutions (0.7 mL) is added dropwise on the filter paper, and sucrose (30 mg) is homogeneously placed into said cup as a feed. Two (2) male adult German cockroaches (Blattella germanica) are released into said cup, and the cup is covered. After 6 days, life and death of the German cockroach are examined, the number of the dead insects is counted, and the mortality of insects is calculated by the following equation. Mortality(%)=(Number of dead insects/Number of test insects)×100

CCS(=O)(=O)c1cc(OC(C)C)cnc1-n1ccc2nc(C(F)(F)F)cn2c1=O [compound 12]
mortality: 100%
